Experimental data published in the NIST ThermoML archive (doi:10.1021/acs.jced.8b00975).
Numbers after ± are expanded uncertainties.

Experiment: xn = mol fraction of the nth substance listed
Details: Liquid, Vibrating tube method

C=C(C)C(=O)OCCN(C)C [2-(dimethylamino)ethyl methylpropenoate] + CCO
mass density [kg/m3]
Details | 100 kPa | 5000 kPa | 20000 kPa | 25000 kPa | 30000 kPa | 35000 kPa
303.15 K, x1 = 0.03 | – | – | 810.87 ± 0.55 | 814.43 ± 0.56 | 817.87 ± 0.58 | 821.22 ± 0.59
303.15 K, x1 = 0.0603 | – | – | 822.87 ± 0.55 | 826.4 ± 0.56 | 829.79 ± 0.57 | 833.08 ± 0.58
303.15 K, x1 = 0.1002 | – | – | 836.53 ± 0.54 | 840.03 ± 0.55 | 843.44 ± 0.56 | 846.8 ± 0.57
303.15 K, x1 = 0.2021 | – | – | 863.75 ± 0.54 | 867.22 ± 0.54 | 870.62 ± 0.55 | 873.98 ± 0.56
303.15 K, x1 = 0.3014 | – | – | 882.96 ± 0.53 | 886.41 ± 0.54 | 889.8 ± 0.54 | 893.16 ± 0.55
303.15 K, x1 = 0.4003 | – | – | 897.38 ± 0.53 | 900.86 ± 0.54 | 904.27 ± 0.54 | 907.64 ± 0.54
303.15 K, x1 = 0.4499 | – | – | 903.17 ± 0.53 | 906.65 ± 0.53 | 910.06 ± 0.54 | 913.41 ± 0.54
303.15 K, x1 = 0.5006 | – | – | 908.47 ± 0.53 | 911.94 ± 0.53 | 915.35 ± 0.54 | 918.74 ± 0.54
303.15 K, x1 = 0.5488 | – | – | 912.87 ± 0.53 | 916.34 ± 0.53 | 919.76 ± 0.54 | 923.18 ± 0.54
303.15 K, x1 = 0.5998 | – | – | 917.13 ± 0.53 | 920.59 ± 0.54 | 924.04 ± 0.54 | 927.53 ± 0.54
303.15 K, x1 = 0.703 | – | – | 924.18 ± 0.54 | 927.67 ± 0.54 | 931.11 ± 0.54 | 934.54 ± 0.55
303.15 K, x1 = 0.8012 | – | – | 929.69 ± 0.54 | 933.18 ± 0.55 | 936.65 ± 0.55 | 940.15 ± 0.55
303.15 K, x1 = 0.9025 | – | – | 934.45 ± 0.55 | 937.94 ± 0.55 | 941.4 ± 0.56 | 944.86 ± 0.56
303.15 K, x1 = 0.9288 | – | – | 935.26 ± 0.55 | 938.73 ± 0.56 | 942.19 ± 0.56 | 945.69 ± 0.56
303.15 K, x1 = 0.9594 | – | – | 936.45 ± 0.56 | 939.94 ± 0.56 | 943.39 ± 0.56 | 946.82 ± 0.57
313.15 K, x1 = 0.0301 | 785.54 ± 0.51 | 790.39 ± 0.52 | – | – | – | –
313.15 K, x1 = 0.0604 | 797.46 ± 0.51 | 802.1 ± 0.52 | – | – | – | –
313.15 K, x1 = 0.1009 | 811.29 ± 0.51 | 815.85 ± 0.52 | – | – | – | –
313.15 K, x1 = 0.2013 | 838.49 ± 0.51 | 842.83 ± 0.52 | – | – | – | –
313.15 K, x1 = 0.302 | 858.03 ± 0.51 | 862.37 ± 0.52 | – | – | – | –
313.15 K, x1 = 0.401 | 872.35 ± 0.51 | 876.61 ± 0.52 | – | – | – | –
313.15 K, x1 = 0.4507 | 878.39 ± 0.51 | 882.61 ± 0.52 | – | – | – | –
313.15 K, x1 = 0.4984 | 883.4 ± 0.52 | 887.63 ± 0.52 | – | – | – | –
313.15 K, x1 = 0.553 | 888.58 ± 0.52 | 892.77 ± 0.52 | – | – | – | –
313.15 K, x1 = 0.6053 | 892.9 ± 0.52 | 897.11 ± 0.52 | – | – | – | –
313.15 K, x1 = 0.7041 | 899.74 ± 0.52 | 903.88 ± 0.53 | – | – | – | –
313.15 K, x1 = 0.8027 | 905.5 ± 0.53 | 909.63 ± 0.53 | – | – | – | –
313.15 K, x1 = 0.9016 | 910.19 ± 0.53 | 914.28 ± 0.54 | – | – | – | –
313.15 K, x1 = 0.9342 | 911.48 ± 0.54 | 915.6 ± 0.54 | – | – | – | –
313.15 K, x1 = 0.9607 | 912.61 ± 0.54 | 916.71 ± 0.54 | – | – | – | –
